Data from patent US7825093B2 (priority 2006, dated 2010).
Entries after “also recorded” stand apart in the source; their conditions may differ.

Tests used:
[1] = test system: CD40L on T cells in human whole blood; format: cell-based
[2] = biological target: human Kv1.3 channel (Homo sapiens, UniProt P22001); format: cell-based
[3] = test system: IL-2R on T cells in human whole blood; format: cell-based
[4] = test system: human PBMCs; format: cell-based
[5] = test system: IL-2 production in human whole blood
[6] = test system: human PBMCs; format: cell-based; remark: listed apart in the source
[7] = rat, in vivo, iv
[8] = test system: AT-EAE model; parameters: species or system Lewis rats; settings: rat, in vivo, sc
[9] = test system: IFN-g production in human whole blood; format: cell-based
[10] = test system: human PBMCs; format: cell-based; remark: listed apart in the source
[11] = biological target: Kv1.3 transfected HEK 293 cells (Homo sapiens, UniProt P22001); assay: Whole cell immunoassay (ELISA) on fixed HEK 293 cells overexpressing Kv1.3; format: binding
Experimental: Our peptibody reagent can be a useful and convenient tool for monitoring Kv1.3 channel expression in patients and have utility in diagnostic applications. The procedure shown in FIG. 34A and FIG. 34B follows.
FIG. 34A. A whole cell immunoassay was performed to show binding of intact Fc-L10-ShK[1-35] to Kv1.3 transfected HEK 293 cells (BioFocus plc, Cambridge, UK). Parent HEK 293 cells or HEK Kv1.3 cells were plated at 3×10e4 cells/well in poly-D-Lysine coated ninety-six well plates (#35-4461; Becton-Dickinson, Bedford, Mass.). Cells were fixed with formalin (Sigma HT50-1-1 Formalin solution, diluted 1:1 with PBS/0.5% BSA before use) by removing cell growth medium, adding 0.2 ml/well formalin solution and incubating at room temperature for 25 minutes and then washing one time with 100 μl/well of PBS/0.5% BSA. Wells were blocked by addition of 0.3 ml/well of BSA blocker (50-61-00; KPL 10% BSA Diluent/Blocking Solution, diluted 1:1 with PBS; KPL, Gaithersburg, Md.) followed by incubation at room temperature, with shaking, for 3 hr. Plates were washed 2 times with 1×KP Wash Buffer (50-63-00; KPL). […] Absorbance was read at 450 nm on a Molecular Devices SpectroMax 340 (Sunnyvale, Calif.).
FIG. 34B. […] Absorbances were read at 405 nm after stopping reactions by addition of 0.1 ml/well of 1% SDS.

[12] = biological target: HEK 293 cells overexpressing human Kv1.3 (Homo sapiens, UniProt P22001); assay: Immunohistochemistry analysis of binding to HEK 293 cells overexpressing human Kv1.3; settings: 5 μg/ml
Experimental: Immunohistochemistry analysis of Fc-L10-ShK[1-35] binding to HEK 293 cells overexpressing human Kv1.3. HEK 293 cells overexpressing human Kv1.3 (HEK Kv1.3) were obtained from BioFocus plc (Cambridge, UK) and maintained per manufacturer's recommendation. The parental HEK 293 cell line was used as a control. Cells were plated on Poly-D-Lysine 24 well plates (#35-4414; Becton-Dickinson, Bedford, Mass.) and allowed to grow to approximately 70% confluence. HEK KV1.3 were plated at 0.5×10e5 cells/well in 1 ml/well of medium. HEK 293 cells were plated at a density of 1.5×10e5 cells/well in 1 ml/well of medium. Before staining, cells were fixed with formalin (Sigma HT50-1-1 Formalin solution, diluted 1:1 with PBS/0.5% BSA before use) by removing cell growth medium, adding 0.2 ml/well formalin solution and incubating at room temperature for ten minutes. Cells were stained by incubating with 0.2 ml/well of 5 μg/ml Fc-L10-ShK[1-35] in PBS/BSA for 30′ at room temperature. Fc-L10-ShK[1-35] was aspirated and then the cells were washed one time with PBS/0.5% BSA. Detection antibody (Goat F(ab)2 anti-human IgG-phycoerythrin; Southern Biotech Associates, Birmingham, Ala.) was added to the wells at 5 μg/ml in PBS/0.5% BSA and incubated for 30′ at room temperature. Wash cells once with PBS/0.5% BSA and examine using confocal microscopy (LSM 510 Meta Confocal Microscope; Carl Zeiss AG, Germany). […]

Sequence of Kv1.3 transfected HEK 293 cells (P22001 whole entry): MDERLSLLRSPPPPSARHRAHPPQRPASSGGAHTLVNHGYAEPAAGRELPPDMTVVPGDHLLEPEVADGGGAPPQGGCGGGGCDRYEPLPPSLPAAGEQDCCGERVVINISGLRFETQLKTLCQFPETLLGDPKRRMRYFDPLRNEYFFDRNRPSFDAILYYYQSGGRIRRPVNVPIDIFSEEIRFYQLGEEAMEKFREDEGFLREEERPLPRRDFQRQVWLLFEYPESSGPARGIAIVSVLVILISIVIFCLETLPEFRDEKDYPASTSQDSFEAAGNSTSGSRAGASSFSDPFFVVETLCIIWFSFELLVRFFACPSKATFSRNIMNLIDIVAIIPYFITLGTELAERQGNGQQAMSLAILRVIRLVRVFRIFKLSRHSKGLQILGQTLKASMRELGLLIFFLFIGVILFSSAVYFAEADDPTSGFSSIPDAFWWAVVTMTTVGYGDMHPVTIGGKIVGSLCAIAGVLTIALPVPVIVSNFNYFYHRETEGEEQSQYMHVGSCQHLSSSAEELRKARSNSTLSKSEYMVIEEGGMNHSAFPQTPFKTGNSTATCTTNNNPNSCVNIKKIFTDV
Sequence of HEK 293 cells overexpressing human Kv1.3 (P22001 whole entry): as above
Sequence of human Kv1.3 channel (P22001 whole entry): as above

Row | Compound | thapsigargin-induced upregulation of CD40L on T cells (in words) [1] | block of human Kv1.3 current (in words) [2] | thapsigargin-induced upregulation of the IL-2R on T cells (in words) [3] | inhibition of IFNγ production [4] | thapsigargin-induced IL-2 production (in words) [5] | inhibition of IFNg production [6] | time with significant suppression of Kv1.3 current (<70 POC) by 5% serum Test solutions [7] [h] | average body weight lost [8] [g] | disease severity and survival (in words) [8] | onset of disease [8] [days] | thapsigargin-induced IFN-g production (in words) [9] | inhibition of T cell proliferation [10] | binding to fixed cells that overexpress Kv1.3 [11] | staining of HEK 293 cells stably transfected with human Kv1.3 [12]
1 | CC[C@H](C)[C@@H]1NC(=O)[C@@H](NC(=O)[C@H](CO)NC(=O)[C@@H](N)CCCNC(=N)N)CSSC[C@@H](C(=O)O)NC(=O)[C@H]([C@@H](C)O)NC(=O)CNC(=O)[C@@H]2CSSC[C@@H]3NC(=O)[C@H](CCC(N)=O)NC(=O)[C@H](Cc4ccccc4)NC(=O)[C@H](C)NC(=O)[C@H]([C@@H](C)O)NC(=O)[C@H](CSSC[C@H](NC(=O)[C@H](Cc4ccccc4)NC(=O)[C@H](CO)NC(=O)[C@H](CC(C)C)NC(=O)[C@H](CCCNC(=N)N)NC(=O)[C@H](Cc4ccc(O)cc4)NC(=O)[C@H](CCCCN)NC(=O)[C@H](CCSC)NC(=O)[C@H](CO)NC(=O)[C@H](Cc4cnc[nH]4)NC(=O)[C@H](CCCCN)NC3=O)C(=O)N[C@@H](CCCNC(=N)N)C(=O)N[C@@H](CCCCN)C(=O)N[C@@H]([C@@H](C)O)C(=O)N2)NC(=O)[C@H](CCCNC(=N)N)NC(=O)[C@H](CO)NC(=O)[C@H](CCCCN)NC(=O)[C@@H]2CCCN2C(=O)[C@H]([C@@H](C)CC)NC(=O)[C@H]([C@@H](C)O)NC(=O)[C@H](CC(=O)O)NC1=O [ShK, reference compound] | suppressed | potently block Kv1.3 | suppressed | only a partial inhibition | suppressed | only partial inhibition | ≤ 1 | 30 | developed severe disease and died | 4 | suppressed |  |  | 
2 | Fc-L10-ShK[1-35]: Fc region of human IgG1 fused via L10 linker to Kv1.3 inhibitor peptide ShK[1-35] | suppressed |  | suppressed | complete inhibition of the response |  | nearly complete inhibition |  |  |  |  |  | blocked T cell proliferation; also recorded: potently inhibits proliferation of T cells in a dose-dependent manner | dose-dependent increase in response; also recorded: high affinity binding to its target | stains HEK 293 cells stably transfected with human Kv1.3
